This assay deals with Urease (Canavalia ensiformis, UniProt P07374). The assay is described as follows: Inhibition of jack bean urease.
Urease, sequence (P07374 whole entry): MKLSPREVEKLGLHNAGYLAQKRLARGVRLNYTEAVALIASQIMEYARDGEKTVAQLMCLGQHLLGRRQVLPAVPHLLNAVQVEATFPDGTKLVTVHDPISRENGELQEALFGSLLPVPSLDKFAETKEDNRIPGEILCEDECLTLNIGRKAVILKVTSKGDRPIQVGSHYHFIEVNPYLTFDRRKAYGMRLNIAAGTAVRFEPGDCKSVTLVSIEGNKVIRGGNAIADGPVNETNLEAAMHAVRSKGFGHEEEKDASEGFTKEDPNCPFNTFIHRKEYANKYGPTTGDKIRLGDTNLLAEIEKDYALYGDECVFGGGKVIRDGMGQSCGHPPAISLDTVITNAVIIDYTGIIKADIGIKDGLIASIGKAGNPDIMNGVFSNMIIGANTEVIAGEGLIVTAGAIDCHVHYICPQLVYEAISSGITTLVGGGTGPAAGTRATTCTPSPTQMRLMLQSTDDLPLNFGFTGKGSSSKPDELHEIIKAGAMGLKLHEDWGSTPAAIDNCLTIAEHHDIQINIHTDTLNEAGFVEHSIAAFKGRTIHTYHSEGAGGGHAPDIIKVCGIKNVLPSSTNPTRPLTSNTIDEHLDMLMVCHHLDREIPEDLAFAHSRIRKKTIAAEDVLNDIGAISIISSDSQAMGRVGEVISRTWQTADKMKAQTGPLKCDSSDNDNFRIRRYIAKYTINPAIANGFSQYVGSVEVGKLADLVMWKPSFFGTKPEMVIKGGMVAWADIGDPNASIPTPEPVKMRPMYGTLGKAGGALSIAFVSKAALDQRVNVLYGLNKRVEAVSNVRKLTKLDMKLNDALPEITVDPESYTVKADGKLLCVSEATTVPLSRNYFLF
The IC50 is the concentration needed to halve the response being measured. A higher IC50 goes with a need for much substance. Molecule `O=c1oc2ccccc2c(O)c1C(CCc1ccccc1)c1c(O)c2ccccc2oc1=O` showed a half-inhibitory concentration (IC50) of 67.6 µM. The figure for `CC(C)c1ccc(C(c2c(O)oc3ccccc3c2=O)c2c(O)oc3ccccc3c2=O)cc1` is 83.2 µM; for `O=c1c(C(c2ccc(O)cc2)c2c(O)oc3ccccc3c2=O)c(O)oc2ccccc12` it is 74.1 µM; for `O=c1oc2ccccc2c(O)c1Cc1c(O)c2ccccc2oc1=O` [DICUMAROL] it is 15.1 µM.

As for `COc1ccc(C(c2c(O)c3ccccc3oc2=O)c2c(O)c3ccccc3oc2=O)cc1OC`, 79.4 µM corresponded to half-maximal inhibition (IC50). `COc1ccccc1C(c1c(O)c2ccccc2oc1=O)c1c(O)c2ccccc2oc1=O` showed an IC50 of 83.2 µM. In turn, `CCCC(c1c(O)c2ccccc2oc1=O)c1c(O)c2ccccc2oc1=O` showed an IC50 of 67.6 µM. Next, `O=c1oc2ccccc2c(O)c1C(/C=C/c1ccccc1)c1c(O)c2ccccc2oc1=O`: 60.3 µM; `Nc1cccc(C(c2c(O)c3ccccc3oc2=O)c2c(O)c3ccccc3oc2=O)c1`: 75.9 µM; `O=c1oc2ccccc2c(O)c1C(c1ccccc1Br)c1c(O)c2ccccc2oc1=O`: 74.1 µM. With `O=c1oc2ccccc2c(O)c1C(c1c(O)c2ccccc2oc1=O)c1c[nH]c2ccccc12`, the IC50 is 61.7 µM. The figure for `O=c1oc2ccccc2c(O)c1C(c1cccnc1)c1c(O)c2ccccc2oc1=O` is 35.5 µM; for `O=c1oc2ccccc2c(O)c1C(c1cccc([N+](=O)[O-])c1)c1c(O)c2ccccc2oc1=O` it is 81.3 µM; for `O=c1oc2ccccc2c(O)c1C(c1ccncc1)c1c(O)c2ccccc2oc1=O` it is 58.9 µM. Consider `O=c1c(C(c2ccc([N+](=O)[O-])cc2)c2c(O)oc3ccccc3c2=O)c(O)oc2ccccc12`, for which 70.8 µM corresponded to half-maximal inhibition (IC50). The figure for `CCOc1cc(C(c2c(O)c3ccccc3oc2=O)c2c(O)c3ccccc3oc2=O)ccc1O` is 91.2 µM; for `COc1cccc(C(c2c(O)c3ccccc3oc2=O)c2c(O)c3ccccc3oc2=O)c1` it is 56.2 µM; for `COc1cc(C(c2c(O)oc3ccccc3c2=O)c2c(O)oc3ccccc3c2=O)cc(OC)c1OC` it is 83.2 µM.

For `CC(c1c(O)c2ccccc2oc1=O)c1c(O)c2ccccc2oc1=O`, the 50% inhibitory concentration (IC50) was 63.1 µM. The figure for `CCCCCC(c1c(O)c2ccccc2oc1=O)c1c(O)c2ccccc2oc1=O` is 87.1 µM; for `O=c1oc2ccccc2c(O)c1C(c1ccccc1Cl)c1c(O)c2ccccc2oc1=O` it is 85.1 µM; for `O=c1oc2ccccc2c(O)c1C(c1cccc(Cl)c1)c1c(O)c2ccccc2oc1=O` it is 74.1 µM. As to `COc1ccc(C(c2c(O)c3ccccc3oc2=O)c2c(O)c3ccccc3oc2=O)cc1`, the IC50 was 60.3 µM. The figure for `O=c1oc2ccccc2c(O)c1C(c1ccc[nH]1)c1c(O)c2ccccc2oc1=O` is 46.8 µM; for `CC(c1ccccc1)C(c1c(O)c2ccccc2oc1=O)c1c(O)c2ccccc2oc1=O` (stereo not drawn) it is 52.5 µM; for `C/C=C/C(c1c(O)c2ccccc2oc1=O)c1c(O)c2ccccc2oc1=O` it is 43.7 µM.

`CCCCC(c1c(O)c2ccccc2oc1=O)c1c(O)c2ccccc2oc1=O` had a 50% inhibitory concentration (IC50) of 64.6 µM.

In the case of `O=c1oc2ccccc2c(O)c1C(c1cccc(O)c1)c1c(O)c2ccccc2oc1=O`, the midpoint of inhibition, the IC50, lay at 72.4 µM.
